These results are taken from publication PMC12311865, “In Vitro Evaluation of the Potential Interactions of Zearalenone-14-sulfate and Zearalenone-14-glucuronide with Human Cytochrome P450 Enzymes, Organic Anion Transporting Polypeptides, and ATP-Binding Cassette Multidrug Transporters” (ACS Omega, 2025).

Series [1] concerns the target T1, MDR1 (Homo sapiens, UniProt P08183).
T1 construct: made in house; host or cells: Sf9 insect cells (baculovirus)
Kind of series: MDR1-mediated NMQ vesicular transport (Sf9 membrane vesicles). To be noted: 0–50 μM; NMQ 5 μM. The series is classed as biochemical. The method, then: Experiments were performed in insect membrane vesicles, as described previously. Briefly, human MDR1, BCRP, and MRP2 were expressed in Sf9 insect cells by baculoviruses. On the third day of infection, cells were collected and membrane vesicles were obtained by mechanical disruption and differential centrifugation. To get full activity for BCRP, the cholesterol levels of the vesicles were adjusted to the level of mammalian membranes. Vesicles were stored at −80 °C, and the total protein content of the preparations was measured by the Lowry method (used as a reference for the quantity). […] A 100 μL volume of fluorescence stabilizer was added to the samples (DMSO for LY, 0.1 M H2SO4 for NMQ, and 0.1 M NaOH for CDCF). Fluorescence of samples was measured by plate readers (Victor X3 and Enspire PerkinElmer; Waltham, MA) at appropriate wavelengths (filters in the Victor X3 reader were 405/535 nm for LY and 492/635 nm for CDCF; while in the Enspire reader, NMQ was measured at 360/430 nm excitation/emission wavelengths). ABC-related transport was calculated by subtracting passive uptake measured without Mg-ATP from values measured in the presence of Mg-ATP.

The target of series [2] is T2, CYP2C9 (Homo sapiens, UniProt P11712).
T2 construct: purchased Merck
T2 sequence (P11712 whole entry): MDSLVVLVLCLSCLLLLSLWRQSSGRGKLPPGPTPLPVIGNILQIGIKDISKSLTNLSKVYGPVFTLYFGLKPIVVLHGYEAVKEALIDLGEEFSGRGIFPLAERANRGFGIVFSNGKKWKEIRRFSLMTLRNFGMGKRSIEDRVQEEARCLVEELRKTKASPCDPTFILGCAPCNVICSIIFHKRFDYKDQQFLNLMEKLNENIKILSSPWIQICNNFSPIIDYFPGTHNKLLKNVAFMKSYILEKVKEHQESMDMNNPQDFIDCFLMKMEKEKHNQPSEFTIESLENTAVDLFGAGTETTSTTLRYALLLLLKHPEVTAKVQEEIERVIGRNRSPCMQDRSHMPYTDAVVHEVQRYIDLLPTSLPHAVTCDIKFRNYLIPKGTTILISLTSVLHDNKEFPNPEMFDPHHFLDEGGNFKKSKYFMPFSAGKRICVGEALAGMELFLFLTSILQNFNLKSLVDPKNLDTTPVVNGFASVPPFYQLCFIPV
Also on record: method as in our previous study. The settings on record: ref our previous study; cited from earlier work.

Series [3] addresses T3, OATP1B3 (Homo sapiens, UniProt Q9NPD5).
T3 construct: expressed in transfected cells; host or cells: A431
T3 sequence (Q9NPD5 1-702): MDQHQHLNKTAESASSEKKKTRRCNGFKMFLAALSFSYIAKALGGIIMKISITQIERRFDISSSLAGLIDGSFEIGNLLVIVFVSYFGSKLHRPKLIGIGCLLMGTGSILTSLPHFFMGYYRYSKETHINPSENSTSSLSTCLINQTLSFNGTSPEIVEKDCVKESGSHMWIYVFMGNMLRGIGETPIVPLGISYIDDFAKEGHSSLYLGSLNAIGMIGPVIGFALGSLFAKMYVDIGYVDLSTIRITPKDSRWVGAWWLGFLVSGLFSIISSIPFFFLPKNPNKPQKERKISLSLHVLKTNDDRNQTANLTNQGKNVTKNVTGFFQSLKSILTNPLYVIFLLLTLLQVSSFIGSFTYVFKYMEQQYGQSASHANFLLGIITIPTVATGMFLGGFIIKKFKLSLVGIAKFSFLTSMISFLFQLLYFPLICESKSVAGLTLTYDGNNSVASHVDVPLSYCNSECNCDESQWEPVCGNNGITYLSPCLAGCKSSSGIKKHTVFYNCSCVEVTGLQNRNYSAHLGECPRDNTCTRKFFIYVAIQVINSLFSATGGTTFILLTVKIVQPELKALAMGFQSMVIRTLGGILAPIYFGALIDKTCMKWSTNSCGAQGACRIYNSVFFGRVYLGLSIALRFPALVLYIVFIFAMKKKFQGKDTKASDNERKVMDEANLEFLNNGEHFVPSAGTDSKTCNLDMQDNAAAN
Also noted: method as in earlier report. The settings on record: same experimental model; ref earlier report; cited from earlier work.

For series [4], the target named is T4, OATP2B1 (Homo sapiens, UniProt O94956).
T4 construct: expressed in transfected cells; host or cells: A431
T4 sequence (O94956 1-709): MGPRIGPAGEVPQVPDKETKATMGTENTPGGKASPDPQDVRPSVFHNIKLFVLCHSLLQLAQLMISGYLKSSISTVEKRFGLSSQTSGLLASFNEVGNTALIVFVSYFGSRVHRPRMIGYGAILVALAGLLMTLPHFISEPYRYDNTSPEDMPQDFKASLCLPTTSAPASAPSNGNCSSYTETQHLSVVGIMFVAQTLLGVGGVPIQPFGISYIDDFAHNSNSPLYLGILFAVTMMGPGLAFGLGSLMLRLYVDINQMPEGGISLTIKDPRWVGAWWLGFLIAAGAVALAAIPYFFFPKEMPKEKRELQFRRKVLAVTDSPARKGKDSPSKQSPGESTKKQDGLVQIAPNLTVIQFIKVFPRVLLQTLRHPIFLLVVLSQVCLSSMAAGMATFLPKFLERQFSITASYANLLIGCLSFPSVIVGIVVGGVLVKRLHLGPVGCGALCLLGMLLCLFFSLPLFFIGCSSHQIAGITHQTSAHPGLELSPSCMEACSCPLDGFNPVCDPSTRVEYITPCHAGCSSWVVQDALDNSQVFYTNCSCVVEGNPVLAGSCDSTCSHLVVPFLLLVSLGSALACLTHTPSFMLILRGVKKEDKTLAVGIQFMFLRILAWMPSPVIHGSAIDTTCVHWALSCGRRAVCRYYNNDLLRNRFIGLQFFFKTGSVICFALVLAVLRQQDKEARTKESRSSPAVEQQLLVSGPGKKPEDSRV
Also on record: method as in earlier report. To be noted: same experimental model; ref earlier report; cited from earlier work.

The target of series [5] is T5, CYP3A4 (Homo sapiens, UniProt P08684).
T5 construct: purchased Merck
T5 sequence (P08684 whole entry): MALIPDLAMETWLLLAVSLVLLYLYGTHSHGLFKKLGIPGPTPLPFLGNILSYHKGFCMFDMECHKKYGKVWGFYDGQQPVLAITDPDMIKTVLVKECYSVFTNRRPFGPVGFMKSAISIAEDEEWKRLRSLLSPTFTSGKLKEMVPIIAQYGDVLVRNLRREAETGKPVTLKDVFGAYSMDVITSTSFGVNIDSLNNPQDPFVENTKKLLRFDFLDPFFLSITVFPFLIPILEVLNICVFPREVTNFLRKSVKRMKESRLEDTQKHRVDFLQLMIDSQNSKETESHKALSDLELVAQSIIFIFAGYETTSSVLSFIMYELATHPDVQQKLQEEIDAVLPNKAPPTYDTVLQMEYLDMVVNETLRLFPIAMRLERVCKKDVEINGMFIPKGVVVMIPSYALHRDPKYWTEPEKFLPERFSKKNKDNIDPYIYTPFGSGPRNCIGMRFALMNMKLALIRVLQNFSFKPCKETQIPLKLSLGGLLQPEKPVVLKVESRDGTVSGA
Also on record: method as in our previous study. To be noted: ref our previous study; cited from earlier work.

T1 sequence (P08183 whole entry): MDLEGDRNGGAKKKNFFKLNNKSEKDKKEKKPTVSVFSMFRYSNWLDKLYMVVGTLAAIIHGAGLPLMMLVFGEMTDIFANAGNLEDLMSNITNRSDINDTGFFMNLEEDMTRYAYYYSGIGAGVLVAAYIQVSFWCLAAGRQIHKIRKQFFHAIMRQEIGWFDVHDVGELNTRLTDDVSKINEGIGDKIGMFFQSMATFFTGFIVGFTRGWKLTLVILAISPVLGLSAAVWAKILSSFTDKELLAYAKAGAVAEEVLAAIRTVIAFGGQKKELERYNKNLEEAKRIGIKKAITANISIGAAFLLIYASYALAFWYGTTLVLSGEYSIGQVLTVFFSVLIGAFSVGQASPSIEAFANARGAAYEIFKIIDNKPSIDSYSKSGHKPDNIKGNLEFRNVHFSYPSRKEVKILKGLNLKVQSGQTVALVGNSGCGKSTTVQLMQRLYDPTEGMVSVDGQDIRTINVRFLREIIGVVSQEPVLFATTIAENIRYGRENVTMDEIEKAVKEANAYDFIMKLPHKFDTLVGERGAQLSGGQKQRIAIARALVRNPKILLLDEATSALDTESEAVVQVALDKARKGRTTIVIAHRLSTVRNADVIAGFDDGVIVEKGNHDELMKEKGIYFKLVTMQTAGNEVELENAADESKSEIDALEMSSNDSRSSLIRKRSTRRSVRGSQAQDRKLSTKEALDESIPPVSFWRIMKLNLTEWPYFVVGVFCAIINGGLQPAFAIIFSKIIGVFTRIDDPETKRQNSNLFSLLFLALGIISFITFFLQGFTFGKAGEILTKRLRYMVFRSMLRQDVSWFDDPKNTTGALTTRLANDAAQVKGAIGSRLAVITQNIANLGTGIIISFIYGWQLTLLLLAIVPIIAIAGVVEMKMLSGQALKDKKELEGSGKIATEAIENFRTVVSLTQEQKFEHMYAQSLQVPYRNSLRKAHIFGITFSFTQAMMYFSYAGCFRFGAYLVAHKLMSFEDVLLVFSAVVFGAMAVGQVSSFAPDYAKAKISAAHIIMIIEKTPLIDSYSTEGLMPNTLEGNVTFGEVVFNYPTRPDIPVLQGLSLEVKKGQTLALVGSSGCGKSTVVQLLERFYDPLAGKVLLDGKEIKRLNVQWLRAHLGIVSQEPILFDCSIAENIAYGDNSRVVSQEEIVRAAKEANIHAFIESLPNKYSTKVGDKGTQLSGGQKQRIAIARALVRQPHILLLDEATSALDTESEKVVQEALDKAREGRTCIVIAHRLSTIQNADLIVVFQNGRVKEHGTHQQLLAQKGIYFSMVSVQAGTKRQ

As to `C[C@H]1CCCC(=O)CCC/C=C/c2cc(O)cc(O)c2C(=O)O1` [ZEN, Zearalenone], the “effect on MDR1-driven NMQ transport” value in series [1] is on record as “inhibition only at 50 μM concentration”. Further, the IC50 was 9.8 µM in series [2], 8.1 µM in series [3], 2300 nM in series [4] and 2000 nM in series [5].

A word on the IC50: it is the concentration that inhibits the measured activity by half.
